# In patent publication US6375928B1, “Neutrophil stimulating peptides” (Peptech Limited, priority 1990, dated 2002):
# Where no end group is shown, it is not given here. The star is where a group is joined. Acm = CC(=O)NC*
# Experiments:
# Assay type in all cases: cell-based
# [1] = system: human neutrophils; experiment: Chemiluminescence assay: priming of neutrophils for F-met-leu-phe response (respiratory burst); settings: for lucigenin dependent chemiluminescence, peak of response: 20 min pretreatment before f-met-leu-phe; for Chemiluminescence, neutrophil respiratory burst: 100 ug peptide, second, Table 4; for chemiluminescence (repeat experiment, Table 3): peptide + fMLP; for Chemiluminescence mean + sem: priming neutrophils for respiratory burst
# Procedure: Purified human neutrophils were pretreated with peptide for 20 minutes before the addition of f-met-leu-phe. The lucigenin dependent chemiluminescence response, which reflects superoxide production, was then measured. The results obtained are set out in Table 2 and are expressed as mV of lucigenin dependent chemiluminescence and represent the maximal cell activity attained.
# Results are expressed as mV of lucigenin dependent chemiluminescence and represent peak of response i.e. the maximal cell activity attained.
# [2] = system: neutrophils; experiment: Neutrophil random migration out of wells in agarose
# Text: Migration of cells is an important property by which cells reach infection sites. Their accumulation at these sites is also dependent on the capacity of inflammatory mediators to inhibit their migration out of the sites.
# [3] = system: neutrophils; experiment: Chemotactic properties, neutrophil migration under agarose; settings: towards agent well; 1 × 10^−7 M fMLP, peptide, or 10^3 U/ml TNFα; 2×10^5 neutrophils
# Procedure: 5 μl of neutrophils (2×10^5 cells) were added to the inner well, with chemotactic agent or control medium added to the outer wells. Migration at various time intervals was then measured.
# [4] = system: neutrophils; experiment: Neutrophil degranulation: β-glucuronidase release (azurophilic granules); settings: for β-glucuronidase release, Exp. 1 / β-glucuronidase release, Exp. 2 / β-glucuronidase release, Exp. 3 / β-glucuronidase release, Exp. 4: in the presence of CytoB
# [5] = system: neutrophils; experiment: Neutrophil degranulation: Vitamin B12 binding protein release (specific granules); settings: for Vitamin B12 Binding Protein, Exp. 1 / Vitamin B12 Binding Protein, Exp. 2 / Vitamin B12 Binding Protein, Exp. 3 / Vitamin B12 Binding Protein, Exp. 4: in the presence of CytoB
# [6] = system: human neutrophils; experiment: Chemiluminescence assay: priming of neutrophils for F-met-leu-phe response (respiratory burst); settings: peptide alone
# [7] = system: neutrophils; experiment: Superoxide formation, cytochrome reduction assay
# Text: The effect of peptides 308 and 309 (SEQ ID NOs. 10 & 11) on superoxide formation was examined by the cytochrome reduction assay, according to the procedure of Ferrante, 1989 (Infection and Immunity), 57: 2115-2122). The results, expressed as n moles of O2/5×10^5 cells as set out in Table 6.
# [8] = system: monocytes; experiment: Priming of monocytes for a respiratory burst (chemiluminescence); settings: with fMLP; 10^6 monocytes/tube/ml; 419 100 μg/10^6 monocytes, 50 U TNF or no pre-treatment, 30 min pre-incubation 37° C.
# Procedure: Peptide 419 (SEQ ID NO. 18) was assayed for its ability to prime monocytes for a respiratory burst. This assay was conducted essentially as described above for neutrophils except that the cells were cultured for 24 hours prior to assay.
# [9] = peptide 100 μg/10^6 cells (or HBSS) + fMLP
# [10] = peptide 100 μg/10^6 cells, no fMLP
compound,measurement,setting,value
T I S R I A V S Y Q T (TISRIAVSYQT) [Peptide 323],priming of neutrophils for the respiratory burst associated with f-met-leu-phe treatment (in words),[1],not found to be capable of priming neutrophils
same,"lucigenin dependent chemiluminescence, peak of response",[1]; peptide 1 μg/10^6 cells,0.23 mV
same,"lucigenin dependent chemiluminescence, peak of response",[1]; peptide 10 μg/10^6 cells,0.17 mV
same,"lucigenin dependent chemiluminescence, peak of response",[1]; peptide 100 μg/10^6 cells,0.47 mV
A V S Y Q T K V N L L (AVSYQTKVNLL) [Peptide 396],"Chemiluminescence, neutrophil respiratory burst",[1],0.70 mV
A K P W Y E P I Y L (AKPWYEPIYL) [Peptide 275],"lucigenin dependent chemiluminescence, peak of response",[1]; peptide 1 μg/10^6 cells,0.99 mV
same,"lucigenin dependent chemiluminescence, peak of response",[1]; peptide 10 μg/10^6 cells,0.69 mV
same,"lucigenin dependent chemiluminescence, peak of response",[1]; peptide 100 μg/10^6 cells,0.43 mV
same,"lucigenin dependent chemiluminescence, peak of response",[1]; peptide 500 μg/10^6 cells,0.80 mV
A E G Q L Q W L N R R A N A L L A N G (AEGQLQWLNRRANALLANG) [Peptide 307],"lucigenin dependent chemiluminescence, peak of response",[1]; peptide 1 μg/10^6 cells,0.35 mV
same,"lucigenin dependent chemiluminescence, peak of response",[1]; peptide 10 μg/10^6 cells,0.37 mV
same,"lucigenin dependent chemiluminescence, peak of response",[1]; peptide 100 μg/10^6 cells,0.42 mV
LFKGQGCPSTHVLLTHTISRI (LFKGQGCPSTHVLLTHTISRI) [Peptide 304],neutrophil stimulating activity / stimulation of neutrophil respiratory burst (in words),[1],neutrophil stimulating activity
same,priming of neutrophils for the respiratory burst associated with f-met-leu-phe treatment (in words),[1],found to prime human neutrophils for the respiratory burst
same,"lucigenin dependent chemiluminescence, peak of response",[1]; peptide 1 μg/10^6 cells,0.18 mV
same,"lucigenin dependent chemiluminescence, peak of response",[1]; peptide 10 μg/10^6 cells,0.43 mV
same,"lucigenin dependent chemiluminescence, peak of response",[1]; peptide 100 μg/10^6 cells,2.56 mV
same,"lucigenin dependent chemiluminescence, peak of response",[1]; peptide 500 μg/10^6 cells,2.76 mV
same,"chemiluminescence (repeat experiment, Table 3)",[1]; 10 μg/10^6 cells,0.91 mV
same,"chemiluminescence (repeat experiment, Table 3)",[1]; 100 μg/10^6 cells,6.97 mV
same,effect on neutrophil random migration (in words),[2],chemokinetic
same,Inhibition of Migration,[2]; 10 μg/10^6 cells,−43%
same,Inhibition of Migration,[2]; column headed 0 μg/10^6 cells,−16%
same,"Migration distance at 1.5 h, Agent",[3],0.47 mm
same,"Migration distance at 2.5 h, Agent",[3],0.72 mm
same,"release from azurophilic granules (β-glucuronidase), in words",[4]; absence of fMLP,no effect
same,"β-glucuronidase release, Exp. 1",[4]; [9],26.95%
same,"β-glucuronidase release, Exp. 2",[4]; [9],36.43%
same,"β-glucuronidase release, Exp. 3",[4]; [9],35.34%
same,"β-glucuronidase release, Exp. 4",[4]; [9],36.65%
same,"β-glucuronidase release, Exp. 1",[4]; [10],3.63%
same,"β-glucuronidase release, Exp. 2",[4]; [10],3.14%
same,"β-glucuronidase release, Exp. 3",[4]; [10],2.52%
same,"β-glucuronidase release, Exp. 4",[4]; [10],9.82%
same,"release from azurophilic granules (β-glucuronidase), in words",[4]; presence of fMLP,not azurophilic granules
same,"release from specific granules (Vitamin B12 binding protein), in words",[5]; absence of fMLP,no effect
same,"Vitamin B12 Binding Protein, Exp. 1",[5]; [9],43.76
same,"Vitamin B12 Binding Protein, Exp. 2",[5]; [9],35.60
same,"Vitamin B12 Binding Protein, Exp. 3",[5]; [9],59.15
same,"Vitamin B12 Binding Protein, Exp. 4",[5]; [9],37.12
same,"Vitamin B12 Binding Protein, Exp. 1",[5]; [10],11.40
same,"Vitamin B12 Binding Protein, Exp. 2",[5]; [10],10.82
same,"Vitamin B12 Binding Protein, Exp. 3",[5]; [10],13.06
same,"Vitamin B12 Binding Protein, Exp. 4",[5]; [10],8.42
same,"release from specific granules (Vitamin B12 binding protein), in words",[5]; presence of fMLP,enhanced release from specific granules
same,"chemiluminescence (repeat experiment, Table 3)",[6]; 10 μg/10^6 cells,0.36 mV
same,"chemiluminescence (repeat experiment, Table 3)",[6]; 100 μg/10^6 cells,0.64 mV
V R S S S R T P S D K P V A H V V A (VRSSSRTPSDKPVAHVVA) [Peptide 301],"lucigenin dependent chemiluminescence, peak of response",[1]; peptide 1 μg/10^6 cells,0.93 mV
same,"lucigenin dependent chemiluminescence, peak of response",[1]; peptide 10 μg/10^6 cells,0.74 mV
same,"lucigenin dependent chemiluminescence, peak of response",[1]; peptide 100 μg/10^6 cells,0.55 mV
same,"lucigenin dependent chemiluminescence, peak of response",[1]; peptide 500 μg/10^6 cells,1.10 mV
HVLLTHTISRIAVSYQTKVNLL (HVLLTHTISRIAVSYQTKVNLL) [Peptide 309],neutrophil stimulating activity / stimulation of neutrophil respiratory burst (in words),[1],neutrophil stimulating activity
same,priming of neutrophils for the respiratory burst associated with f-met-leu-phe treatment (in words),[1],found to prime human neutrophils for the respiratory burst
same,"Chemiluminescence, neutrophil respiratory burst",[1],4.70 mV
same,"lucigenin dependent chemiluminescence, peak of response",[1]; peptide 1 μg/10^6 cells,0.38 mV
same,"lucigenin dependent chemiluminescence, peak of response",[1]; peptide 10 μg/10^6 cells,0.98 mV
same,"lucigenin dependent chemiluminescence, peak of response",[1]; peptide 100 μg/10^6 cells,13.44 mV
same,"chemiluminescence (repeat experiment, Table 3)",[1]; 10 μg/10^6 cells,2.46 mV
same,"chemiluminescence (repeat experiment, Table 3)",[1]; 100 μg/10^6 cells,12.84 mV
same,superoxide formation,"[7]; peptide + fMLP, 10 μg/5 × 10^5 cells",3.87 n moles of O2/5×10^5 cells
same,superoxide formation,"[7]; peptide + fMLP, 100 μg/5 × 10^5 cells",5.14 n moles of O2/5×10^5 cells
same,superoxide formation,"[7]; peptide alone, 10 μg/5 × 10^5 cells",0.62 n moles of O2/5×10^5 cells
same,superoxide formation,"[7]; peptide alone, 100 μg/5 × 10^5 cells",2.30 n moles of O2/5×10^5 cells
same,effect on neutrophil random migration (in words),[2],potent inhibitors of neutrophil migration
same,Inhibition of Migration,[2]; 10 μg/10^6 cells,0%
same,Inhibition of Migration,[2]; 100 μg/10^6 cells,100%
same,"Migration distance at 1.5 h, Agent",[3],0.53 mm
same,"Migration distance at 2.5 h, Agent",[3],0.68 mm
same,"chemiluminescence (repeat experiment, Table 3)",[6]; 10 μg/10^6 cells,0.31 mV
same,"chemiluminescence (repeat experiment, Table 3)",[6]; 100 μg/10^6 cells,0.69 mV
L T H T I S R I A (LTHTISRIA) [Peptide 393],"Chemiluminescence, neutrophil respiratory burst",[1],0.31 mV
L R D N Q L V V P S E G L Y L I (LRDNQLVVPSEGLYLI) [Peptide 302],"lucigenin dependent chemiluminescence, peak of response",[1]; peptide 1 μg/10^6 cells,0.16 mV
same,"lucigenin dependent chemiluminescence, peak of response",[1]; peptide 10 μg/10^6 cells,0.18 mV
same,"lucigenin dependent chemiluminescence, peak of response",[1]; peptide 100 μg/10^6 cells,0.29 mV
S R I A V S Y Q T K V N L L (SRIAVSYQTKVNLL) [Peptide 394],"Chemiluminescence, neutrophil respiratory burst",[1],0.33 mV
L S A E I N R P D Y L D F A E S G Q V (LSAEINRPDYLDFAESGQV) [Peptide 305],"lucigenin dependent chemiluminescence, peak of response",[1]; peptide 1 μg/10^6 cells,0.27 mV
same,"lucigenin dependent chemiluminescence, peak of response",[1]; peptide 10 μg/10^6 cells,0.36 mV
same,"lucigenin dependent chemiluminescence, peak of response",[1]; peptide 100 μg/10^6 cells,0.24 mV
V A H V V A N P Q A E G Q L (VAHVVANPQAEGQL) [Peptide 306],"lucigenin dependent chemiluminescence, peak of response",[1]; peptide 1 μg/10^6 cells,0.27 mV
same,"lucigenin dependent chemiluminescence, peak of response",[1]; peptide 10 μg/10^6 cells,0.35 mV
same,"lucigenin dependent chemiluminescence, peak of response",[1]; peptide 100 μg/10^6 cells,0.23 mV
"CSCC[C@H](NC=O)C(=O)N[C@@H](CC(C)C)C(=O)N[C@@H](Cc1ccccc1)C(=O)O [fMLP, N-formyl-L-methionyl-L-leucyl-L-phenylalanine, reference compound]","Peak mV Chemiluminescence, Mean ± S.D.",[8],109.0 ± 7.071 mV
same,"Peak mV Chemiluminescence, experiment 2",[8],114.0 mV
same,"Migration distance at 1.5 h, Agent",[3],1.46 mm
same,"Migration distance at 2.5 h, Agent",[3],2.45 mm
"K G Q G Cys (Acm) P S T H V L L T H T (KGQGC(Acm)PSTHVLLTHT) [Peptide 462, reference compound]",priming of neutrophils for the respiratory burst associated with f-met-leu-phe treatment (in words),[1],does not possess the biological activity of those peptides
same,Chemiluminescence mean + sem,[1]; 1 μg peptide,3.1 ± 0.5 mV
same,Chemiluminescence mean + sem,[1]; 10 μg peptide,4.8 ± 0.7 mV
same,Chemiluminescence mean + sem,[1]; 100 μg peptide,4.8 ± 0.5 mV
P S A H V L L T H T I (PSAHVLLTHTI) [Peptide 418],neutrophil stimulating activity / stimulation of neutrophil respiratory burst (in words),[1],neutrophil stimulating activity
L S A I K S P C Q R E T P E G A (LSAIKSPCQRETPEGA) [Peptide 303],"lucigenin dependent chemiluminescence, peak of response",[1]; peptide 1 μg/10^6 cells,0.23 mV
same,"lucigenin dependent chemiluminescence, peak of response",[1]; peptide 10 μg/10^6 cells,0.17 mV
same,"lucigenin dependent chemiluminescence, peak of response",[1]; peptide 100 μg/10^6 cells,0.22 mV
